Test results as given in patent publication US8586555B2, “Immunomodulatory compositions, formulations, and methods for use thereof” (Dynavax Technologies Corporation, priority 2001, dated 2013).

Legend:
[1] = tested on: human peripheral blood mononuclear cells (hPBMC); assay: human PBMC assay, Example 7 (oligo 20 μg/ml, cPLGA 100 μg/ml); type: cell-based; conditions: for immunomodulatory activity: combined with cPLGA; for IFN-α Mean / IFN-γ Mean: mean of donors 28115-28118
Method: (§1) Hexameric oligonucleotides were tested for immunomodulatory activity alone and complexed with lactic acid/glycolic acid copolymer microcarrier beads using a human peripheral blood mononuclear cells (hPBMC) assay. Peripheral blood was collected from healthy volunteers by venipuncture using heparinized syringes. Blood was layered onto a FICOLL® (Amersham Pharmacia Biotech) cushion and centrifuged. hPBMCs, located at the FICOLL® interface, were collected, then washed twice with cold phosphate buffered saline (PBS). The cells were resuspended and cultured in 48 well plates at 2×10^6 cells/mL at 37° C. in RPMI 1640 with 10% heat-inactivated human AB serum plus 50 units/mL penicillin, 50 μg/mL streptomycin, 300 μg/mL glutamine, 1 mM sodium pyruvate, and 1×MEM non-essential amino acids (NEAA).
(§2) Oligonucleotides were tested as single agents, or in combination with PLGA microspheres (unmodified or cationic). All oligonucleotides contained 100% phosphorothioate linkages and were tested at 20 μg/ml. The PLGA microcarriers were used at 250 μg/ml. When oligos were tested with PLGA microcarriers, the oligo and the microcarriers were added at the same time to the culture. The cells were cultured in the in the presence of test samples for 24 hours, then cell-free medium was collected from each well and assayed for IFN-γ and IFN-α concentration. Two different oligonucleotides were used as controls: a first oligonucleotide known to have immunostimulatory activity (a 22mer oligonucleotide containing an ISS (“ISS+,” 5′-[…]-3′(SEQ ID NO:2)) and a second oligonucleotide of similar sequence but lacking immunostimulatory activity (“ISS−,” 5′-[…]-3′ (SEQ ID NO:1)). SAC (PANSORBIN® CalBiochem, 1/5000 dilution) and a untreated culture were used as additional positive and negative controls, respectively. SAC contains Staph. aureus (Cowan I) cell material. All samples were assayed in duplicate.
(§3) IFN-γ and IFN-α were assayed using CYTOSCREEN™ ELISA kits from BioSource International, Inc., according to the manufacturer's instructions.
(§4) The immunomodulatory activity of the oligonucleotides used in Examples 3 and 4 was confirmed with the human PBMC assay using PBMCs from an additional four donors (donors 28051-28054). Oligonucleotides were tested alone or in combination with cationic PLGA as described in Example 3, except that 96 well plates were used instead of 48 well plates and the oligonucleotides were premixed with the cationic microspheres at room temperature for 15 minutes before they were added to the culture, rather than being added simultaneously to the culture.
Additional oligonucleotides, some incorporating modified bases, were tested for immunomodulatory activity in the human PBMC assay. Oligonucleotides were tested alone or in combination with cPLGA as described in Example 5. The oligonucleotides were premixed with the cationic PLGA microspheres for 15 minutes at room temperature at concentrations of 20 μg/ml and 100 μg/ml, respectively.

[2] = tested on: human peripheral blood mononuclear cells (hPBMC); assay: human PBMC assay, Example 6; type: cell-based
Method: as §1, §2, §3, §4
Additional oligonucleotides were tested for immunomodulatory activity in the human PBMC assay. Oligonucleotides were tested alone or in combination with cPLGA as described in Example 5.
Additional oligonucleotides were tested using hPBMCs from volunteers 154-157 using the same assay. Results, which are shown in Table 7, confirm the activity of oligonucleotides fitting the formula 5′-X1TCGX2-3′, where the oligonucleotide is a 3-6mer, X1 is zero or one nucleotide and X2 is zero to three nucleotides.

[3] = delivered as oligonucleotide/MC complex (cPLGA)

Row | Substance | immunomodulatory activity [2, 3] | IFN-α ([2]; donor 28075) [pg/mL] | IFN-γ ([2]; donor 28075) [pg/mL] | IFN-α ([2]; donor 28076) [pg/mL] | IFN-γ ([2]; donor 28076) [pg/mL] | IFN-α ([2]; donor 28077) [pg/mL] | IFN-γ ([2]; donor 28077) [pg/mL] | IFN-α ([2]; donor 28078) [pg/mL] | IFN-γ ([2]; donor 28078) [pg/mL] | IFN-α Mean ([2]; mean of donors 28075-28078) [pg/mL] | IFN-γ Mean ([2]; mean of donors 28075-28078) [pg/mL] | IFN-α Mean ([2]; mean of volunteers 154-157) [pg/mL] | IFN-γ Mean ([2]; mean of volunteers 154-157) [pg/mL] | IFN-α ([2]; volunteer 154) [pg/mL] | IFN-γ ([2]; volunteer 154) [pg/mL] | IFN-α ([2]; volunteer 155) [pg/mL] | IFN-γ ([2]; volunteer 155) [pg/mL] | IFN-α ([2]; volunteer 156) [pg/mL] | IFN-γ ([2]; volunteer 156) [pg/mL] | IFN-α ([2]; volunteer 157) [pg/mL] | other results
1 | 5′-AATCGT-3′ [Oligonucleotide 6-25] |  |  |  |  |  |  |  |  |  |  |  |  |  |  |  |  |  |  |  |  | immunomodulatory activity [1]: active; IFN-α ([1]; donor 28115): 7 pg/mL; IFN-γ ([1]; donor 28115): 2 pg/mL; IFN-α ([1]; donor 28116): 0 pg/mL; IFN-γ ([1]; donor 28116): 15 pg/mL; IFN-α ([1]; donor 28117): 0 pg/mL; IFN-γ ([1]; donor 28117): 11 pg/mL; IFN-α ([1]; donor 28118): 0 pg/mL; IFN-γ ([1]; donor 28118): 0 pg/mL; IFN-α Mean [1]: 2 pg/mL; IFN-γ Mean [1]: 7 pg/mL
2 | 5′-ACGTTT-3′ [Oligonucleotide 6-13] | inactive | 10 | 8 | 39 | 225 | 28 | 18 | 34 | 15 | 28 | 67 |  |  |  |  |  |  |  |  |  | immunomodulatory activity ([2]; delivered alone): inactive
3 | 5′-CCGTTT-3′ [Oligonucleotide 6-14] | inactive | 15 | 11 | 51 | 12 | 9 | 14 | 230 | 11 | 76 | 12 |  |  |  |  |  |  |  |  |  | immunomodulatory activity ([2]; delivered alone): inactive
4 | 5′-CGATCG-3′ [Oligonucleotide 6-11] |  |  |  |  |  |  |  |  |  |  |  | 0 | 3 | 0 | 0 | 0 | 0 | 0 | 10 | 0 | IFN-γ ([2]; volunteer 157): 0 pg/mL
5 | 5′-GACGTT-3′ [Oligonucleotide 6-17, reference compound] | largely inactive |  |  |  |  |  |  |  |  |  |  | 0 | 4 | 0 | 0 | 0 | 0 | 0 | 16 | 0 | IFN-γ ([2]; volunteer 157): 0 pg/mL
6 | 5′-GCGTTT-3′ [Oligonucleotide 6-15] | inactive | 36 | 11 | 9 | 12 | 35 | 15 | 36 | 11 | 29 | 13 |  |  |  |  |  |  |  |  |  | immunomodulatory activity ([2]; delivered alone): inactive
7 | 5′-TCCGGA-3′ [Oligonucleotide 6-18, reference compound] | largely inactive |  |  |  |  |  |  |  |  |  |  | 0 | 4 | 0 | 0 | 0 | 0 | 0 | 15 | 0 | IFN-γ ([2]; volunteer 157): 0 pg/mL
8 | 5′-TCCTTT-3′ [Oligonucleotide 6-20, reference compound] |  |  |  |  |  |  |  |  |  |  |  | 0 | 3 | 0 | 0 | 0 | 0 | 0 | 13 | 0 | IFN-α ([1]; donor 28115): 0 pg/mL; IFN-γ ([1]; donor 28115): 6 pg/mL; IFN-α ([1]; donor 28116): 0 pg/mL; IFN-γ ([1]; donor 28116): 3 pg/mL; IFN-α ([1]; donor 28117): 0 pg/mL; IFN-γ ([1]; donor 28117): 9 pg/mL; IFN-α ([1]; donor 28118): 0 pg/mL; IFN-γ ([1]; donor 28118): 0 pg/mL; IFN-α Mean [1]: 0 pg/mL; IFN-γ Mean [1]: 5 pg/mL; IFN-γ ([2]; volunteer 157): 0 pg/mL
9 | 5′-TCG-3′ [Oligonucleotide 3-1] | active in two out of four donors | 0 | 7 | 0 | 11 | 4 | 12 | 11 | 15 | 4 | 11 |  |  |  |  |  |  |  |  |  | 
10 | 5′-TCGCGA-3′ [Oligonucleotide 6-10] |  |  |  |  |  |  |  |  |  |  |  | 0 | 4 | 0 | 0 | 0 | 0 | 0 | 15 | 0 | IFN-γ ([2]; volunteer 157): 0 pg/mL
11 | 5′-TCGT-3′ [Oligonucleotide 4-1] | active in two out of four donors | 0 | 9 | 3 | 12 | 0 | 14 | 10 | 14 | 3 | 12 |  |  |  |  |  |  |  |  |  | 
12 | 5′-TCGTCG-3′ [Oligonucleotide 6-12] | highly active | 5 | 8 | 3 | 13 | 187 | 13 | 181 | 18 | 94 | 13 |  |  |  |  |  |  |  |  |  | 
13 | 5′-TTCGT-3′ [Oligonucleotide 5-3] |  |  |  |  |  |  |  |  |  |  |  |  |  |  |  |  |  |  |  |  | immunomodulatory activity [1]: active in two of four donors; IFN-α ([1]; donor 28115): 10 pg/mL; IFN-γ ([1]; donor 28115): 26 pg/mL; IFN-α ([1]; donor 28116): 0 pg/mL; IFN-γ ([1]; donor 28116): 4 pg/mL; IFN-α ([1]; donor 28117): 0 pg/mL; IFN-γ ([1]; donor 28117): 17 pg/mL; IFN-α ([1]; donor 28118): 0 pg/mL; IFN-γ ([1]; donor 28118): 0 pg/mL; IFN-α Mean [1]: 3 pg/mL; IFN-γ Mean [1]: 12 pg/mL
14 | 5′-TTTTCG-3′ [Oligonucleotide 6-5] |  |  |  |  |  |  |  |  |  |  |  | 0 | 3 | 0 | 0 | 0 | 0 | 0 | 11 | 0 | IFN-γ ([2]; volunteer 157): 0 pg/mL
15 | 5′-UCGTTT-3′ [Oligonucleotide 6-21] |  |  |  |  |  |  |  |  |  |  |  |  |  |  |  |  |  |  |  |  | immunomodulatory activity [1]: active; IFN-α ([1]; donor 28115): 0 pg/mL; IFN-γ ([1]; donor 28115): 27 pg/mL; IFN-α ([1]; donor 28116): 0 pg/mL; IFN-γ ([1]; donor 28116): 0 pg/mL; IFN-α ([1]; donor 28117): 0 pg/mL; IFN-γ ([1]; donor 28117): 7 pg/mL; IFN-α ([1]; donor 28118): 0 pg/mL; IFN-γ ([1]; donor 28118): 0 pg/mL; IFN-α Mean [1]: 0 pg/mL; IFN-γ Mean [1]: 8 pg/mL
